Data taken from patent EP0908457B1, “3-(1,2-benzisothiazol- and isoxazol-5-Y1)-2,4(1H,3H)-pyrimidinedione or thione and 3-(1,2-benzisothiazol- and isoxazol-5-y1)-4(3H)-pyrimidinone or thione herbicidal agents” (BASF AKTIENGESELLSCHAFT, priority 1997, dated 1999).

Columns and labels:
[1] = system: Oryza sativa, (L.) Tebonnet; assay: Rice tolerance to post-transplant applications under flooded paddy conditions (Example 187), ORYSAT (Rice, Tebonnet); conditions: for ORYSAT: herbicidal effect rating 0-9, three to four weeks after treatment; for ORYSAT herbicidal rating (rice tolerance) / herbicidal effect rating ORYSAT: rated three to four weeks after treatment
Sagittaria pygmaea, L. = assay: Preemergence weed control under flooded paddy conditions, SAGPY (Arrowhead (Pygmaea)); type: in vivo; conditions: flooded paddy; for SAGPY: preemergence weeds, herbicidal effect rating 0-9, three to four weeks after treatment; for SAGPY herbicidal rating / herbicidal effect rating, SAGPY: preemergence, rated three to four weeks after treatment; as to herbicidal effect rating, SAGPY: meaning of each grade not given here
[2] = system: Echinochloa oryzoides (Ard.) Fritsch.; assay: Preemergence weed control under flooded paddy conditions, ECHORC (Watergrass (Calif.)); type: in vivo; conditions: flooded paddy; for ECHORC: preemergence weeds, herbicidal effect rating 0-9, three to four weeks after treatment; for ECHORC herbicidal rating / herbicidal effect rating, ECHORC: preemergence, rated three to four weeks after treatment; as to herbicidal effect rating, ECHORC: meaning of each grade not given here
Cyperus iria = assay: Preemergence weed control under flooded paddy conditions, CYPIR (Rice Flatsedge); type: in vivo; conditions: flooded paddy; for CYPIR: preemergence weeds, herbicidal effect rating 0-9, three to four weeks after treatment; for CYPIR herbicidal rating / herbicidal effect rating, CYPIR: preemergence, rated three to four weeks after treatment; as to herbicidal effect rating, CYPIR: meaning of each grade not given here
[3] = system: Monochoria vaginalis, Presl.; assay: Preemergence weed control under flooded paddy conditions, MOOVA (Monochoria); type: in vivo; conditions: flooded paddy; for MOOVA: preemergence weeds, herbicidal effect rating 0-9, three to four weeks after treatment; for MOOVA herbicidal rating / herbicidal effect rating, MOOVA: preemergence, rated three to four weeks after treatment; as to herbicidal effect rating, MOOVA: meaning of each grade not given here
[4] = system: Cyperus serotinus, Rottb.; assay: Preemergence weed control under flooded paddy conditions, CYPSE (Flatsedge); type: in vivo; conditions: for CYPSE: preemergence weeds, herbicidal effect rating 0-9, three to four weeks after treatment; for CYPSE herbicidal rating / herbicidal effect rating, CYPSE: preemergence, rated three to four weeks after treatment; as to herbicidal effect rating, CYPSE: meaning of each grade not given here

Cn1c(C(F)(F)F)cc(=O)n(-c2ccc3snc(C(=O)NS(=O)(=O)Cc4ccc(C(C)(C)C)cc4)c3c2)c1=O [Example 405, 1,2-Benzisothiazole-3-carboxamide, N-[(p-tert-butylbenzyl)sulfonyl]-5-[3,6-dihydro-3-methyl-2,6-dioxo-4-(trifluoromethyl)-1(2H)-pyrimidinyl]-]
6.0: SAGPY (Sagittaria pygmaea, L.; 0.2500 kg/ha) | MOOVA ([3]; 0.0320 kg/ha) | MOOVA ([3]; 0.0620 kg/ha)
2.0: ORYSAT ([1]; 0.1250 kg/ha) | ORYSAT ([1]; 0.2500 kg/ha)
7.0: ECHORC ([2]; 0.0320 kg/ha) | ECHORC ([2]; 0.0620 kg/ha) | CYPIR (Cyperus iria; 0.1250 kg/ha) | MOOVA ([3]; 0.1250 kg/ha) | MOOVA ([3]; 0.2500 kg/ha)
8.0: CYPIR (Cyperus iria; 0.2500 kg/ha)
5.0: SAGPY (Sagittaria pygmaea, L.; 0.1250 kg/ha)
4.0: CYPIR (Cyperus iria; 0.0320 kg/ha) | CYPIR (Cyperus iria; 0.0620 kg/ha)
9.0: ECHORC ([2]; 0.1250 kg/ha) | ECHORC ([2]; 0.2500 kg/ha)
0.0: ORYSAT ([1]; 0.0320 kg/ha) | ORYSAT ([1]; 0.0620 kg/ha) | SAGPY (Sagittaria pygmaea, L.; 0.0320 kg/ha) | SAGPY (Sagittaria pygmaea, L.; 0.0620 kg/ha) | CYPSE ([4]; 0.0320 kg/ha) | CYPSE ([4]; 0.0620 kg/ha) | CYPSE ([4]; 0.1250 kg/ha) | CYPSE ([4]; 0.2500 kg/ha)

Cn1c(C(F)(F)F)cc(=O)n(-c2ccc3snc(C(=O)NS(=O)(=O)/C=C/c4ccccc4)c3c2)c1=O [Example 501, 1,2-Benzisothiazole-3-carboxamide, 5-[3,6-dihydro-3-methyl-2,6-dioxo-4-(trifluoromethyl)-1(2H)-pyrimidinyl]-N-(styrylsulfonyl)-, (E)-]
5.0: SAGPY herbicidal rating (Sagittaria pygmaea, L.; 0.1250 kg/ha) | ECHORC herbicidal rating ([2]; 0.0620 kg/ha) | ECHORC herbicidal rating ([2]; 0.1250 kg/ha) | CYPSE herbicidal rating ([4]; 0.2500 kg/ha)
4.0: ORYSAT herbicidal rating (rice tolerance) ([1]; 0.2500 kg/ha) | ECHORC herbicidal rating ([2]; 0.0320 kg/ha) | CYPIR herbicidal rating (Cyperus iria; 0.1250 kg/ha)
3.0: ORYSAT herbicidal rating (rice tolerance) ([1]; 0.1250 kg/ha) | SAGPY herbicidal rating (Sagittaria pygmaea, L.; 0.0620 kg/ha) | CYPSE herbicidal rating ([4]; 0.1250 kg/ha)
2.0: SAGPY herbicidal rating (Sagittaria pygmaea, L.; 0.0320 kg/ha) | CYPIR herbicidal rating (Cyperus iria; 0.0620 kg/ha)
0.0: ORYSAT herbicidal rating (rice tolerance) ([1]; 0.0320 kg/ha) | CYPIR herbicidal rating (Cyperus iria; 0.0320 kg/ha) | CYPSE herbicidal rating ([4]; 0.0320 kg/ha) | CYPSE herbicidal rating ([4]; 0.0620 kg/ha)
7.0: ECHORC herbicidal rating ([2]; 0.2500 kg/ha) | MOOVA herbicidal rating ([3]; 0.1250 kg/ha)
6.0: SAGPY herbicidal rating (Sagittaria pygmaea, L.; 0.2500 kg/ha) | CYPIR herbicidal rating (Cyperus iria; 0.2500 kg/ha) | MOOVA herbicidal rating ([3]; 0.0320 kg/ha) | MOOVA herbicidal rating ([3]; 0.0620 kg/ha)
9.0: MOOVA herbicidal rating ([3]; 0.2500 kg/ha)
1.0: ORYSAT herbicidal rating (rice tolerance) ([1]; 0.0620 kg/ha)

Cc1ccc(OC(C)C(=O)NS(C)(=O)=O)c(-c2nsc3ccc(-n4c(=O)cc(C(F)(F)F)n(C)c4=O)cc23)c1 (stereo not drawn) [Example 572, Propionamide, 2-{{2-{5-[3,6-dihydro-3-methyl-2,6-dioxo-4-(trifluoromethyl)-1(2H)-pyrimidinyl)-1,2-benzisothiazol-3-yl}-p-tolyl}oxy}-N-(methylsulfonyl)-]
6.0: herbicidal effect rating ORYSAT ([1]; Rate 0.2500 kg/ha) | herbicidal effect rating, ECHORC ([2]; Rate 0.2500 kg/ha) | herbicidal effect rating, MOOVA ([3]; Rate 0.0620 kg/ha) | herbicidal effect rating, MOOVA ([3]; Rate 0.1250 kg/ha)
5.0: herbicidal effect rating, CYPIR (Cyperus iria; Rate 0.2500 kg/ha)
0.0: herbicidal effect rating ORYSAT ([1]; Rate 0.0320 kg/ha) | herbicidal effect rating, SAGPY (Sagittaria pygmaea, L.; Rate 0.0320 kg/ha) | herbicidal effect rating, SAGPY (Sagittaria pygmaea, L.; Rate 0.0620 kg/ha) | herbicidal effect rating, SAGPY (Sagittaria pygmaea, L.; Rate 0.1250 kg/ha) | herbicidal effect rating, ECHORC ([2]; Rate 0.0320 kg/ha) | herbicidal effect rating, ECHORC ([2]; Rate 0.0620 kg/ha) | herbicidal effect rating, CYPIR (Cyperus iria; Rate 0.0320 kg/ha) | herbicidal effect rating, CYPIR (Cyperus iria; Rate 0.0620 kg/ha) | herbicidal effect rating, MOOVA ([3]; Rate 0.0320 kg/ha) | herbicidal effect rating, CYPSE ([4]; Rate 0.0320 kg/ha) | herbicidal effect rating, CYPSE ([4]; Rate 0.0620 kg/ha) | herbicidal effect rating, CYPSE ([4]; Rate 0.1250 kg/ha)
1.0: herbicidal effect rating ORYSAT ([1]; Rate 0.0620 kg/ha)
9.0: herbicidal effect rating, MOOVA ([3]; Rate 0.2500 kg/ha)
2.0: herbicidal effect rating, ECHORC ([2]; Rate 0.1250 kg/ha) | herbicidal effect rating, CYPIR (Cyperus iria; Rate 0.1250 kg/ha) | herbicidal effect rating, CYPSE ([4]; Rate 0.2500 kg/ha)
3.0: herbicidal effect rating ORYSAT ([1]; Rate 0.1250 kg/ha) | herbicidal effect rating, SAGPY (Sagittaria pygmaea, L.; Rate 0.2500 kg/ha)
